Test results published in US11591336B2 (Relay Therapeutics, Inc., priority 2017, dated 2023).
Structures can show the parent of a compound that is named as a salt.

Biological target: SHP2 (Homo sapiens (Human), UniProt Q06124)
Assay: SHP2 Allosteric Inhibition Assay (DiFMUP prompt fluorescence)
Type: biochemical
Conditions: 0.25 nM SHP2 activated with 0.5 μM peptide IRS1_pY1172(dPEG8)pY1222; substrate DiFMUP 100 μM; 25° C.

SMILES | IC50 [nM]
NC(=O)NC1CCN(c2cnc3c(N4CCCc5ncccc54)n[nH]c3n2)CC1 [Compound 160] | ≥ 10000
C[C@@H]1OCC2(CCN(c3cnc4c(N5CCCc6c5ccc(C#N)c6C5CC5)n[nH]c4n3)CC2)[C@@H]1N [Compound 207] | < 1000
C[C@@H]1OCC2(CCN(c3cnc4c(N5CCCc6c(CCO)cccc65)n[nH]c4n3)CC2)[C@@H]1N [Compound 435] | < 1000
NC[C@@H]1C[C@H]2CC[C@@H](C1)N2c1cnc2c(N3CCCc4ncccc43)n[nH]c2n1 [Compound 150] | < 1000
CC1(CN)CCN(c2cnc3c(N4CCC(C(F)(F)F)c5ccccc54)n[nH]c3n2)CC1 (centres unmarked) [Compound 106] | < 1000
CC(=O)N1CCN(c2n[nH]c3nc(N4CCC5(CC4)CO[C@@H](C)[C@H]5N)cnc23)c2ccc(-c3cnn(C)c3)cc21 [Compound 323] | < 1000
CC1(CO)CCN(c2cnc3c(N4CCCc5ncccc54)n[nH]c3n2)CC1 [Compound 145] | ≥ 10000
C[C@@H]1OCC2(CCN(c3cnc4c(N5CCCc6c5ccnc6C(F)F)n[nH]c4n3)CC2)[C@@H]1N [Compound 236] | < 1000
CC1CCN(c2n[nH]c3nc(N4CCC(C)(CN)CC4)cnc23)c2ccc(-c3ncn[nH]3)cc21 (centres unmarked) [Compound 165] | < 1000
C[C@@H]1OCC2(CCN(c3cnc4c(N5CCCc6c(N)cccc65)n[nH]c4n3)CC2)[C@@H]1N [Compound 375, (3S,4S)-8-[3-(5-amino-1,2,3,4-tetrahydroquinolin-1-yl)-1H-pyrazolo[3,4-b]pyrazin-6-yl]-3-methyl-2-oxa-8-azaspiro[4.5]decan-4-amine] | < 1000
CO/N=C/c1ccc2c(c1)[C@@H](C)CCN2c1n[nH]c2nc(N3CCC4(CC3)CO[C@@H](C)[C@H]4N)cnc12 [Compound 426, (3S,4S)-8-{3-[(4S)-6-[(1E)-(methoxyimino)methyl]-4-methyl-1,2,3,4-tetrahydroquinolin-1-yl]-1H-pyrazolo[3,4-b]pyrazin-6-yl}-3-methyl-2-oxa-8-azaspiro[4.5]decan-4-amine] | < 1000
C[C@@H]1OCC2(CCN(c3cnc4c(N5CCCc6c(-c7ncon7)cccc65)n[nH]c4n3)CC2)[C@@H]1N [Compound 433, (3S,4S)-3-methyl-8-{3-[5-(1,2,4-oxadiazol-3-yl)-1,2,3,4-tetrahydroquinolin-1-yl]-1H-pyrazolo[3,4-b]pyrazin-6-yl}-2-oxa-8-azaspiro[4.5]decan-4-amine] | < 1000

Other lines, results leading:

IC50 [nM] | SMILES
≥ 10000 | c1ccc(OC2CCCN(c3cnc4c(N5CCCc6ncccc65)n[nH]c4n3)C2)cc1 (centres unmarked) [Compound 142]
1000 to 10000 | NC(=O)C1CCN(c2cnc3c(N4CCCc5ncccc54)n[nH]c3n2)CC1 [Compound 157]
< 1000 | C[C@@H]1CCN(c2n[nH]c3nc(N4CCC5(CC4)CO[C@@H](C)[C@H]5N)cnc23)c2ccc(C#N)cc21 [Compound 219]
< 1000 | CNc1nccc(Sc2n[nH]c3nc(N4CCC(C)(N)CC4)cnc23)c1Cl [Compound 497, 4-((6-(4-amino-4-methylpiperidin-1-yl)-1H-pyrazolo[3,4-b]pyrazin-3-yl)thio)-3-chloro-N-methylpyridin-2-amine hydrochloride]
< 1000 | CNC(=O)c1ccc2c(n1)[C@@H](C)CCN2c1n[nH]c2nc(N3CCC4(CC3)CO[C@@H](C)[C@H]4N)cnc12 [Compound 362, (8S)-5-{6-[(3S,4S)-4-amino-3-methyl-2-oxa-8-azaspiro[4.5]decan-8-yl]-1H-pyrazolo[3,4-b]pyrazin-3-yl}-N,8-dimethyl-5,6,7,8-tetrahydro-1,5-naphthyridine-2-carboxamide]
< 1000 | C[C@@H]1OCC2(CCN(c3cnc4c(N5CCc6c(-c7nccs7)cccc65)n[nH]c4n3)CC2)[C@@H]1N [Compound 221]
< 1000 | CC1(CN)CCN(c2cnc3c(N4CCCc5c(-c6ccc(F)cc6)cccc54)n[nH]c3n2)CC1 [Compound 69]
< 1000 | C[C@@H]1OCC2(CCN(c3cnc4c(N5CCN(C)c6c5cccc6S(C)(=O)=O)n[nH]c4n3)CC2)[C@@H]1N [Compound 367]
